For orientation: IC50 means the concentration that inhibits the measured activity by half. Lower therefore signals greater potency in that assay.

For the experiment, the target named is T1, AHR (UniProt P35869).
T1 sequence (P35869 1-848): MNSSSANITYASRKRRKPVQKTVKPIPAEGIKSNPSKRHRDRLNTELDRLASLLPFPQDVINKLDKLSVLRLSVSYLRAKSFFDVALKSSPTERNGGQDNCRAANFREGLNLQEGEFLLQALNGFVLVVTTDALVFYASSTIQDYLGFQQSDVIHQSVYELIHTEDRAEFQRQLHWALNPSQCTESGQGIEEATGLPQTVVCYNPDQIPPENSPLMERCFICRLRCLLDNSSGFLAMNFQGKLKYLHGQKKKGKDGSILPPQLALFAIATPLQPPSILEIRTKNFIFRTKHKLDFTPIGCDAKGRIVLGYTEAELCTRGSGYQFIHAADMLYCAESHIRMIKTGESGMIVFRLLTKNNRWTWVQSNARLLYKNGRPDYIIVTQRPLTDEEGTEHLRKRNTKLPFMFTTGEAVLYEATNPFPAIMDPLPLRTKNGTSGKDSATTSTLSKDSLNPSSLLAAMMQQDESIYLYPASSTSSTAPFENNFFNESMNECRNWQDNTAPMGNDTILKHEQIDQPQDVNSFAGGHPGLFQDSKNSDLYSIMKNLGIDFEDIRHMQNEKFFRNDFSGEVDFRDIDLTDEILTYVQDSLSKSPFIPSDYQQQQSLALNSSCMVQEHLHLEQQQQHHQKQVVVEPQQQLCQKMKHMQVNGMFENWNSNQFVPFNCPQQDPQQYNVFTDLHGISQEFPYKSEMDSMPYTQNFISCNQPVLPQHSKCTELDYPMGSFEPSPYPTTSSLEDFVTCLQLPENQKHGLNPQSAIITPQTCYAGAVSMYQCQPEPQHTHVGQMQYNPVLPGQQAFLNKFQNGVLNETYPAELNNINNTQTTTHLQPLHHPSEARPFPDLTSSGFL
In words: DRE-Luciferase Reporter Assay (Alternate Method), Example 1B. Format: cell-based. The following applies: concentration which inhibits half of the luciferase activity induced by AHR activating ligand; DRE-luciferase reporter cell line. As for the experimental part:
AHR binds to Dioxin Responsive Elements (DRE) upstream of genes that it activates. One measure of AHR activity is activation of a reporter gene, such as luciferase, downstream of one or multiple DRE elements. Luciferase activity will reflect activation and inhibition of AHR in the cells expressing his reporter.
Murine Hepa1-6 or Hepa-1c1c7 or other murine cell line with a DRE-luciferase reporter either stably or transiently transfected were plated in media in plates (96-well, 384-well or other plates) and incubated overnight at 37° C. in a C02 incubator or compound and agonist were added at the time of plating. Likewise, human HepG2 or other human cell line with a DRE-luciferase reporter either stably or transiently transfected were plated in media in plates (96-well, 384-well or other plates) and incubated overnight at 37° C. in a C02 incubator or compound and agonist were added at the time of plating.
At the time that cells are plated or following incubation overnight, an AHR activating ligand, such as TCDD, kynurenine, ITE (2-(1H-indole-3-ylcarbonyl)-4-thiazolecarboxylic methyl ester), VAF347, BNF (beta-naphthoflavone), FICZ (6-formylindolo(3,2-b) carbazole or other AHR ligands, was added with or without AHR antagonist.
Cells were incubated for 4, 15 or 24 hours or another time point and then lysed for determination of luciferase activity as a read-out of the AHR activation or inhibition. Luciferase was measured with a commercial kit such as the Promega Luciferase kit or any kit or reagents that provide the luciferin substrate for measuring luciferase activity. The level of luciferase with only activating ligand added was the maximum signal while the luciferase with no ligand was the minimum signal. IC50 values were determined as the concentration which inhibits half of the luciferase activity.
A general note: Reporter assays use an easily measured gene product as a stand-in for the process of interest.
`C[C@H](NCC1CC1)c1cnn2c(N[C@@H]3CCc4[nH]c5ccccc5c4C3)nc(-c3cncc(F)c3)nc12` [Compound I-20a, (3R)—N-[8-[(1S)-1-(Cyclopropylmethylamino)ethyl]-2-(5-fluoro-3-pyridyl)pyrazolo[1,5-a][1,3,5]triazin-4-yl]-2,3,4,9-tetrahydro-1H-carbazol-3-amine] returned a concentration for half-maximal inhibition (IC50) of 1 to 1.5 µM.

For the compound `C[C@@H](NCC1CC1)c1cnn2c(N[C@@H]3CCc4[nH]c5ccccc5c4C3)nc(-c3cncc(F)c3)nc12` [Compound I-20b, (3R)—N-[8-[(1R)-1-(Cyclopropylmethylamino)ethyl]-2-(5-fluoro-3-pyridyl)pyrazolo[1,5-a][1,3,5]triazin-4-yl]-2,3,4,9-tetrahydro-1H-carbazol-3-amine], the IC50 was under 0.5 µM.

For the compound `CC(C)c1cnn2c(N[C@@H]3CCc4[nH]c5ccccc5c4C3)nc(-n3cccn3)nc12` [Compound I-21, (3R)—N-(8-isopropyl-2-pyrazol-1-yl-pyrazolo[1,5-a][1,3,5]triazin-4-yl)-2,3,4,9-tetrahydro-1H-carbazol-3-amine], the IC50 was over 1.5 µM.

Compound `Cc1ccnc2c(N[C@@H]3CCc4[nH]c5ccccc5c4C3)nc(-c3cncc(F)c3)nc12` [Compound I-22, (3R)—N-[2-(5-fluoro-3-pyridyl)-8-methyl-pyrido[3,2-d]pyrimidin-4-yl]-2,3,4,9-tetrahydro-1H-carbazol-3-amine] had a half-maximal inhibitory concentration (IC50) of under 0.5 µM.

In turn, `COc1ccnc2c(N[C@@H]3CCc4[nH]c5ccccc5c4C3)nc(-c3cncc(F)c3)nc12` [Compound I-23, (3R)—N-[2-(5-fluoro-3-pyridyl)-8-methoxy-pyrido[3,2-d]pyrimidin-4-yl]-2,3,4,9-tetrahydro-1H-carbazol-3-amine] yielded an IC50 of under 0.5 µM.

Regarding `CC(C)c1cnn2c(N[C@@H]3CCc4[nH]c5c(O)cccc5c4C3)nc(-c3cncc(F)c3)nc12` [Compound I-24a, (6R)-6-[[2-(5-fluoro-3-pyridyl)-8-isopropyl-pyrazolo[1,5-a][1,3,5]triazin-4-yl]amino]-6,7,8,9-tetrahydro-5H-carbazol-1-ol], the half-inhibitory concentration (IC50) was over 1.5 µM.

As to `CC(C)c1cnn2c(N[C@H]3CCc4[nH]c5c(O)cccc5c4C3)nc(-c3cncc(F)c3)nc12` [Compound I-24b, (6S)-6-[[2-(5-fluoro-3-pyridyl)-8-isopropyl-pyrazolo[1,5-a][1,3,5]triazin-4-yl]amino]-6,7,8,9-tetrahydro-5H-carbazol-1-ol], the IC50 was over 1.5 µM.

On to `C[C@@H](CO)c1cnn2c(N[C@@H]3CCc4[nH]c5ccccc5c4C3)nc(-c3cncc(F)c3)nc12` [Compound I-25a, (2R)-2-[2-(5-Fluoro-3-pyridyl)-4-[[(3R)-2,3,4,9-tetrahydro-1H-carbazol-3-yl]amino]pyrazolo[1,5-a][1,3,5]triazin-8-yl]propan-1-ol], for which the half-inhibitory concentration (IC50) was under 0.5 µM.

On to `C[C@H](CO)c1cnn2c(N[C@@H]3CCc4[nH]c5ccccc5c4C3)nc(-c3cncc(F)c3)nc12` [Compound I-25b, (2S)-2-[2-(5-Fluoro-3-pyridyl)-4-[[(3R)-2,3,4,9-tetrahydro-1H-carbazol-3-yl]amino]pyrazolo[1,5-a][1,3,5]triazin-8-yl]propan-1-ol], for which the 50% inhibitory concentration (IC50) was under 0.5 µM.

On to `Fc1cc(-c2nc(N[C@@H]3CCc4[nH]c5ccccc5c4C3)n3nccc3n2)cnc1[C@H]1CCCN1` [Compound I-26b, (3R)—N-[2-[5-Fluoro-6-[(2R)-pyrrolidin-2-yl]-3-pyridyl]pyrazolo[1,5-a][1,3,5]triazin-4-yl]-2,3,4,9-tetrahydro-1H-carbazol-3-amine], for which the IC50 is over 1.5 µM.

`CC(C)c1cnn2c(N[C@@H]3CCc4[nH]c5cc(O)ccc5c4C3)nc(-c3cncc(F)c3)nc12` [Compound I-27a, (6R)-6-[[2-(5-Fluoro-3-pyridyl)-8-isopropyl-pyrazolo[1,5-a][1,3,5]triazin-4-yl]amino]-6,7,8,9-tetrahydro-5H-carbazol-2-ol] returned a half-inhibitory concentration (IC50) of over 1.5 µM.

In the case of `CC(C)c1cnn2c(N[C@H]3CCc4[nH]c5cc(O)ccc5c4C3)nc(-c3cncc(F)c3)nc12` [Compound I-27b, (6S)-6-[[2-(5-Fluoro-3-pyridyl)-8-isopropyl-pyrazolo[1,5-a][1,3,5]triazin-4-yl]amino]-6,7,8,9-tetrahydro-5H-carbazol-2-ol], the IC50 was over 1.5 µM.

`CC(C)c1cnn2c(N[C@H]3CCc4[nH]c5cccc(O)c5c4C3)nc(-c3cncc(F)c3)nc12` [Compound I-29a, (6S)-6-[[2-(5-Fluoro-3-pyridyl)-8-isopropyl-pyrazolo[1,5-a][1,3,5]triazin-4-yl]amino]-6,7,8,9-tetrahydro-5H-carbazol-4-ol] registered a half-maximal inhibitory concentration (IC50) of over 1.5 µM.

`CC(C)c1cnn2c(N[C@@H]3CCc4[nH]c5cccc(O)c5c4C3)nc(-c3cncc(F)c3)nc12` [Compound I-29b, (6R)-6-[[2-(5-Fluoro-3-pyridyl)-8-isopropyl-pyrazolo[1,5-a][1,3,5]triazin-4-yl]amino]-6,7,8,9-tetrahydro-5H-carbazol-4-ol] yielded an IC50 of over 1.5 µM.

In turn, `Fc1cncc(-c2nc(N[C@@H]3CCc4[nH]c5ccccc5c4C3)n3nc4c(c3n2)CCCC4)c1` [Compound I-30, 2-(5-fluoro-3-pyridyl)-N-[(3R)-2,3,4,9-tetrahydro-1H-carbazol-3-yl]-7,8,9,10-tetrahydro-[1,3,5]triazino[1,2-b]indazol-4-amine] yielded a 50% inhibitory concentration (IC50) of 0.5 to 1 µM.

`Nc1cnn2c(N[C@@H]3CCc4[nH]c5ccccc5c4C3)nc(-c3cncc(F)c3)nc12` [Compound I-31, 2-(5-Fluoro-3-pyridyl)-N4-[(3R)-2,3,4,9-tetrahydro-1H-carbazol-3-yl]pyrazolo[1,5-a][1,3,5]triazine-4,8-diamine]: the IC50 is under 0.5 µM.

The compound `C[C@H](N)c1cnn2c(N[C@@H]3CCc4[nH]c5ccccc5c4C3)nc(-c3cncc(F)c3)nc12` [Compound I-32a, (3R)—N-[8-[(1S)-1-Aminoethyl]-2-(5-fluoro-3-pyridyl)pyrazolo[1,5-a][1,3,5]triazin-4-yl]-2,3,4,9-tetrahydro-1H-carbazol-3-amine] had a concentration for half-maximal inhibition (IC50) of under 0.5 µM.

In turn, `C[C@@H](N)c1cnn2c(N[C@@H]3CCc4[nH]c5ccccc5c4C3)nc(-c3cncc(F)c3)nc12` [Compound I-32b, (3R)—N-[8-[(1R)-1-aminoethyl]-2-(5-fluoro-3-pyridyl)pyrazolo[1,5-a][1,3,5]triazin-4-yl]-2,3,4,9-tetrahydro-1H-carbazol-3-amine] came in with a half-maximal inhibitory concentration (IC50) of under 0.5 µM.

Compound `Fc1cncc(-c2nc(N[C@@H]3CCc4[nH]c5ccccc5c4C3)n3nc4c(c3n2)COCC4)c1` [Compound I-33, 2-(5-fluoro-3-pyridyl)-N-[(3R)-2,3,4,9-tetrahydro-1H-carbazol-3-yl]-8,10-dihydro-7H-pyrano[2,3]pyrazolo[2,4-c][1,3,5]triazin-4-amine] yielded an IC50 of under 0.5 µM.

`CC(C)c1cnn2c(N[C@H]3CCc4[nH]c5ccc(O)cc5c4C3)nc(-c3cncc(F)c3)nc12` [Compound I-34a, (6S)-6-[[2-(5-Fluoro-3-pyridyl)-8-isopropyl-pyrazolo[1,5-a][1,3,5]triazin-4-yl]amino]-6,7,8,9-tetrahydro-5H-carbazol-3-ol] showed an IC50 of over 1.5 µM.

`CC(C)c1cnn2c(N[C@@H]3CCc4[nH]c5ccc(O)cc5c4C3)nc(-c3cncc(F)c3)nc12` [Compound I-34b, (6R)-6-[[2-(5-Fluoro-3-pyridyl)-8-isopropyl-pyrazolo[1,5-a][1,3,5]triazin-4-yl]amino]-6,7,8,9-tetrahydro-5H-carbazol-3-ol] registered a 50% inhibitory concentration (IC50) of over 1.5 µM.

In turn, `CC(C)c1cnn2c(N[C@@H]3CNc4ccccc4C3)nc(-c3cncc(F)c3)nc12` [Compound I-35a, (3S)—N-[2-(5-Fluoro-3-pyridyl)-8-isopropyl-pyrazolo[1,5-a][1,3,5]triazin-4-yl]-1,2,3,4-tetrahydroquinolin-3-amine] came in with an IC50 of 1 to 1.5 µM.
